Like-named read-outs stand apart in the source and are kept apart here.
Experiments:
HCT-116 cell line = assay: Inhibition of cell growth, tetrazolium salt (MTT) assay; type: cell-based; conditions: for HCT-116 % Inhibition at 0.25 μM: 0.25 μM compound; for IC50: Homo sapiens, HCT-116, 120 h, MTT, three to five days, read-out: HCT-116 IC50
Method in brief: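 HCT-116 cells in McCoy's 5A medium received compound 4 h after plating (0.5% v/v DMSO) and were incubated three to five days at 37° C, 5% CO2. MTT (0.2 mg/mL final) then added for 4 h; DMSO-solubilized formazan read at 540 nm against 0.5% DMSO-treated controls.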

[1] = molecular target: human CDK4 and genetically truncated (1-264) cyclin D3 (Homo sapiens, UniProt P11802); assay: Inhibition of CDK4/Cyclin D Retinoblastoma Kinase Activity; type: biochemical; conditions: for Ki: apparent Ki, CDK4/truncated cyclin D3, Rb fragment substrate, 25 μM ATP
Chain of human CDK4 and genetically truncated (1-264) cyclin D3 (P11802 whole entry, the tested form may be a part): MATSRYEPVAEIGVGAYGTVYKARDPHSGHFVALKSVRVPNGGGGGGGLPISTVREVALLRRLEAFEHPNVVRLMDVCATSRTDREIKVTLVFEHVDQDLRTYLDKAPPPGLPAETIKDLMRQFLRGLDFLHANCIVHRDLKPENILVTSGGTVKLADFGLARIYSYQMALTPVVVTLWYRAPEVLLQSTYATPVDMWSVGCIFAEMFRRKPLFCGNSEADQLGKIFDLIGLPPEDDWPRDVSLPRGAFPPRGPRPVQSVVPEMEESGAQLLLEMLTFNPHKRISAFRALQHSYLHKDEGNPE
Chain of human CDK4 and genetically truncated (1-264) cyclin D3 (P30281 1-264 partner): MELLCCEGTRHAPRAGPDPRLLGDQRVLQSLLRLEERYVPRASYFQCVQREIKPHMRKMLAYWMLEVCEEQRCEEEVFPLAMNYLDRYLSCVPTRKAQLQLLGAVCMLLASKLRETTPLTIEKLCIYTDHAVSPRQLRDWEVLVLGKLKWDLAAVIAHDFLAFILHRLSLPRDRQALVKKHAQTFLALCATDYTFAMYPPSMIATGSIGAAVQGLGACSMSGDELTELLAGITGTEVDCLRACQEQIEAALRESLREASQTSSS
Procedure: Cyclin-dependent kinase activity was measured by quantifying the enzyme-catalyzed, time-dependent incorporation of radioactive phosphate from [^32P]ATP or [^33P]ATP into a protein substrate. Unless noted otherwise, assays were performed in 96-well plates in a total volume of 50 μL, in the presence of 10 mM HEPES (N-[2-hydroxyethyl]piperazine-N′-[2-ethanesulfonic acid]) (pH 7.4), 10 mM MgCl2, 25 μM adenosine triphosphate (ATP), 1 mg/mL ovalbumin, 5 μg/mL leupeptin, 1 mM dithiothreitol, 10 mM β-glycerophosphate, 0.1 mM sodium vanadate, 1 mM sodium fluoride, 2.5 mM ethylene glycol-bis(β-aminoethyl ether)-N,N,N′N′-tetraacetic acid (EGTA), 2% (v/v) dimethylsulfoxide, and 0.03-0.4 μCi [^32/33P]ATP per reaction. Reactions were initiated with enzyme, incubated at 30° C., and terminated after 20 minutes by the addition of ethylenediaminetetraacetic acid (EDTA) to 250 mM. The phosphorylated substrate was then captured on a nitrocellulose or phosphocellulose membrane using a 96-well filtration manifold, and unincorporated radioactivity was removed by repeated washing with 0.85% phosphoric acid. Radioactivity was quantified by exposing the dried membranes to a phosphorimager.
Inhibition was measured relative to control wells that contained all reaction components including 2% (v/v) DMSO but no compound, after subtraction of background radioactivity measured in the absence of enzyme. Apparent Ki values of discrete compounds were measured by assaying enzyme activity in the presence of different inhibitor compound concentrations and subtracting the background radioactivity measured in the absence of enzyme. The kinetic parameters (kcat, Km for ATP) were measured for each enzyme under the usual assay conditions by determining the dependence of initial rates on ATP concentration. Inhibition data were fit to an equation for competitive inhibition using Kaleidagraph (Synergy Software), or were fit to an equation for competitive tight-binding inhibition using the software KineTic (BioKin, Ltd.).
Inhibition of CDK4/Cyclin D Retinoblastoma Kinase Activity:
A complex of human CDK4 and genetically truncated (1-264) cyclin D3 was purified using traditional biochemical chromatographic techniques from insect cells that had been co-infected with the corresponding baculovirus expression vectors (see e.g., Meijer and Kim, “Chemical Inhibitors of Cyclin-Dependent Kinases,” Methods in Enzymol,. vol. 283 (1997), pp. 113-128.). The enzyme complex (5 nM) was assayed with 0.3-0.5 μg of purified recombinant retinoblastoma protein fragment (Rb) as a substrate. The engineered Rb fragment (residues 386-928 of the native retinoblastoma protein; 62.3 kDa) contains the majority of the phosphorylation sites found in the native 106-kDa protein, as well as a tag of six histidine residues for ease of purification. Phosphorylated Rb substrate was captured by microfiltration on a nitrocellulose membrane and quantified using a phosphorimager as described above. For measurement of tight-binding inhibitors, the assay duration was extended to 60 minutes, during which the time-dependence of product formation was linear and initial rate conditions were met.

CDK2/Cyclin A = CDK2/Cyclin A (Homo sapiens, UniProt P24941); assay: Inhibition of CDK2/Cyclin A Retinoblastoma Kinase Activity; type: biochemical; conditions: for CDK2 % Inhibition At 0.03 μM: Table 2; for Ki: apparent Ki, CDK2/proteolyzed cyclin A, Rb fragment substrate, 25 μM ATP
Method in brief: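 CDK2 (10 or 19 nM), insect-cell expressed, gel-filtration purified with truncated cyclin A; Rb fragment substrate; 25 μM ATP; 10 mM HEPES pH 7.4, 10 mM MgCl2; 30° C, 60 or 75 min; EDTA stop; phosphocellulose/nitrocellulose capture, phosphorimager. % inhibition vs DMSO control, no-enzyme background subtracted.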

`CC(=Cc1ccccc1)C(=O)N1CCC(Nc2nc(N)c(C(=O)c3c(F)cccc3F)s2)CC1` [Example R161] was tested, and the “HCT-116 % Inhibition at 0.1 μM” value (HCT-116 cell line; HCT-116 cells, at 0.1 μM) was 0%, the “HCT-116 5 Inhibition at 0.25 μM” value (HCT-116 cell line; HCT-116 cells) was 34 and the “CDK4 % Inhibition at 0.03 μM” value ([1]; at 0.03 μM) was 53%. The “CDK2 % Inhibition at 0.03 μM” value (CDK2/Cyclin A; at 0.03 μM) was 26%.
`CCOC(=O)CCNC(=O)N1CCC(Nc2nc(N)c(C(=O)c3c(F)cccc3F)s2)CC1` [Example O73] was tested, and the “HCT-116 % Inhibition at 0.25 μM” value (HCT-116 cell line; HCT-116, Table 2) was 42%, the “CDK4 % Inhibition at 0.03 μM” value ([1]; 0.03 μM compound, Table 2) was 4% and the “CDK2 % Inhibition At 0.03 μM” value (CDK2/Cyclin A; 0.03 μM compound) was 29%.
With `Nc1nc(NC2CCN(S(=O)(=O)c3cccs3)CC2)sc1C(=O)c1c(F)cccc1F` [Example P5] the “HCT-116 % Inhibition at 0.1 μM” value (HCT-116 cell line; 0.1 μM compound, HCT-116, Table 3) was 27%, the “HCT-116 % Inhibition at 0.25 μM” value (HCT-116 cell line; HCT-116, Table 3) was 32% and the “CDK4 % Inhibition at 0.03 μM” value ([1]; 0.03 μM compound, Table 3) was 70%. For the same compound, the “CDK2 % Inhibition at 0.03 μM” value (CDK2/Cyclin A; 0.03 μM compound, Table 3) was 64%.
`CCSc1ncccc1C(=O)N1CCC(Nc2nc(N)c(C(=O)c3c(F)cccc3F)s2)CC1` [Example R19] was tested, and the “HCT-116 % Inhibition at 0.1 μM” value (HCT-116 cell line; HCT-116 cells, at 0.1 μM) was 0%, the “HCT-116 5 Inhibition at 0.25 μM” value (HCT-116 cell line; HCT-116 cells) was 46 and the “CDK4 % Inhibition at 0.03 μM” value ([1]; at 0.03 μM) was 54%. The “CDK2 % Inhibition at 0.03 μM” value (CDK2/Cyclin A; at 0.03 μM) was 37%.
For `Nc1nc(NC2CCN(S(=O)(=O)CCCN3CCC4CCCCC4C3)CC2)sc1C(=O)c1c(F)cccc1F` (mixture of isomers) [Example K10, 1-(4-Amino-2-{1-[3-([cis/trans]-octahydro-1H-isoquinolin-2-yl)propane-1-sulfonyl]-piperidin-4-ylamino}-thiazol-5-yl)-1-(2,6-difluoro-phenyl)-methanone.], the IC50 (HCT-116 cell line; first HCT-116 column (c4)) was 190 nM, the IC50 (HCT-116 cell line; second HCT-116 column (c5)) was 1300 nM and the Ki [1] was 1.1 nM. The Ki (CDK2/Cyclin A) was 2.6 nM.
`Cc1nn(C)c2ccc(C(=O)N3CCC(Nc4nc(N)c(C(=O)c5c(F)cccc5F)s4)CC3)c(Cl)c12` [Example R48] was tested, and the “HCT-116 % Inhibition at 0.1 μM” value (HCT-116 cell line; HCT-116 cells, at 0.1 μM) was 0%, the “HCT-116 5 Inhibition at 0.25 μM” value (HCT-116 cell line; HCT-116 cells) was 50 and the “CDK4 % Inhibition at 0.03 μM” value ([1]; at 0.03 μM) was 32%. For the same compound, the “CDK2 % Inhibition at 0.03 μM” value (CDK2/Cyclin A; at 0.03 μM) was 16%.
For `Cc1cc(C(=O)N2CCC(Nc3nc(N)c(C(=O)c4c(F)cccc4F)s3)CC2)ccc1Cl` [Example D7, 1-(4-Amino-2-{1-[1-(4-chloro-3-methyl-phenyl)-methanoyl]-piperidin-4-ylamino}-thiazol-5-yl)-1-(2,6-difluoro-phenyl)-methanone], the IC50 (HCT-116 cell line; first HCT-116 column (c4)) was 7.2 nM, the IC50 (HCT-116 cell line; second HCT-116 column (c5)) was 220 nM and the Ki [1] was 32 nM. The Ki (CDK2/Cyclin A) was 100 nM.
`Nc1nc(NC2CCN(C(=O)OCC3c4ccccc4-c4ccccc43)CC2)sc1C(=O)c1c(F)cccc1F` [Example Q82] was tested, and the “HCT-116 % Inhibition at 0.1 μM” value (HCT-116 cell line; 0.1 μM compound, HCT-116, Table 4) was 0%, the “HCT-116 % Inhibition at 0.25 μM” value (HCT-116 cell line; HCT-116, Table 4) was 28% and the “CDK4 % Inhibition at 0.03 μM” value ([1]; 0.03 μM compound, Table 4) was 15%. For the same compound, the “CDK2 % Inhibition at 0.03 μM” value (CDK2/Cyclin A; 0.03 μM compound, Table 4) was −12%.
With `Nc1nc(NC2CCN(S(=O)(=O)CCCSc3ccccn3)CC2)sc1C(=O)c1c(F)cccc1F` [Example K21, 1-(4-Amino-2-{1-[3-(pyridin-2-ylsulfanyl)-propane-1-sulfonyl]-piperidin-4-ylamino}-thiazol-5-yl)-1-(2,6-difluoro-phenyl)-methanone] the IC50 (HCT-116 cell line; first HCT-116 column (c4)) was over 500 nM, the IC50 (HCT-116 cell line; second HCT-116 column (c5)) was over 500 nM and the Ki [1] was 4.4 nM. It also gave a Ki (CDK2/Cyclin A) of 2.7 nM.
With `N#Cc1cccc(NC(=O)N2CCC(Nc3nc(N)c(C(=O)c4c(F)cccc4F)s3)CC2)c1` [Example O43] the “HCT-116 % Inhibition at 0.25 μM” value (HCT-116 cell line; HCT-116, Table 2) was 12%, the “CDK4 % Inhibition at 0.03 μM” value ([1]; 0.03 μM compound, Table 2) was 10% and the “CDK2 % Inhibition At 0.03 μM” value (CDK2/Cyclin A; 0.03 μM compound) was 31%.
In the case of `Cc1onc(-c2ccccc2)c1C(=O)N1CCC(Nc2nc(N)c(C(=O)c3c(F)cccc3F)s2)CC1` [Example R21], the “HCT-116 % Inhibition at 0.1 μM” value (HCT-116 cell line; HCT-116 cells, at 0.1 μM) is reported as 0%, the “HCT-116 5 Inhibition at 0.25 μM” value (HCT-116 cell line; HCT-116 cells) is reported as 47 and the “CDK4 % Inhibition at 0.03 μM” value ([1]; at 0.03 μM) is reported as 38%. The “CDK2 % Inhibition at 0.03 μM” value (CDK2/Cyclin A; at 0.03 μM) was 2%.
`COc1cccc(C(=O)N2CCC(Nc3nc(N)c(C(=O)c4c(F)cccc4F)s3)CC2)c1` [Example R136] was tested, and the “HCT-116 % Inhibition at 0.1 μM” value (HCT-116 cell line; HCT-116 cells, at 0.1 μM) was 0%, the “HCT-116 5 Inhibition at 0.25 μM” value (HCT-116 cell line; HCT-116 cells) was 37 and the “CDK4 % Inhibition at 0.03 μM” value ([1]; at 0.03 μM) was 45%. The “CDK2 % Inhibition at 0.03 μM” value (CDK2/Cyclin A; at 0.03 μM) was 26%.
